The subject of test [1] is STAT3 phosphorylation in PC3 cells. The test is described as follows: Western blot of STAT3 phosphorylation. In kind it is cell-based, human. To be noted: 24 h. On the procedure: Western blotting was performed as described previously. Proteins were detected using the following antibodies: β-actin (Sigma-Aldrich, Saint Louis, MO), Etk (Santa Cruz Inc., Santa Cruz, CA), pEtk; Src, pSrc; Stat3, pStat3. For phospho-Etk, cells were pre-treated with 100 μM pervanadate for 15 min before harvest.
Figure 4 Inhibition of cell signaling in PC3 cells following treatment with CTA095. Cells were grown in 10 mm plate to 50% confluence and treated with CTA095. Cells were harvested after 24 h. pEtk, Etk, pSrc, Src, pStat3, Stat3, pAkt and Akt levels were measured using the corresponding antibodies by Western blot. One of three similar experiments depicted.

The next test concerns CWR22Rv1 cells. The test is described as follows: MTT growth inhibition assay. To be noted: Homo sapiens, 72 h. The format is cell-based. On the procedure:
(§1) Cells were seeded in 96-well plates and cultured overnight, followed by treatment with 0.1% DMSO, as the vehicle control, and CTA095, at the indicated concentrations for 72 h. Growth inhibition was measured using a 3-(4,5-Dimethylthiazol-2-yl)-2,5-diphenyltetrazolium bromide (MTT) assay (Roche Diagnostic, Mannheim, Germany).
(§2) Figure 5 Growth Inhibition of CTA095 to LNCAP, CWR22Rv1, PC3 prostate cancer and normal prostate (RWPE1) cells. Cells were seeded at 5,000 cells/well in 96-well plate overnight and treated with CTA095 at the indicated concentrations. The cell viability was measured using MTT assay after 72 h. dots, mean; bars, standard deviation, n = 3.
For orientation: Tetrazolium assays rely on reduction of a dye to a coloured formazan, in cell work by metabolically active cells.

The next test has as its system LNCAP cells. As to the kind of experiment: MTT growth inhibition assay. To be noted: Homo sapiens, 72 h. The format is cell-based. As for the experimental part: as §1, §2
Another test concerns RWPE1 cells. As to the kind of experiment: MTT growth inhibition assay. The format is cell-based. To be noted: Homo sapiens, RWPE-1, RWPE1 normal prostate cells, 72 h. On the procedure: as §1, §2
For test [2], the system named is PC3 cells. The test is described as follows: Flow cytometry: PI staining and Annexin V-FITC apoptosis. The format is cell-based, human. To be noted: PC3, 24 h. As for the experimental part: PC3 cells were treated with 0.1% DMSO (control) and CTA095 at the indicated concentrations for 24 h. Cell cycle arrest was determined by the incorporation of propidium iodide (Sigma-Aldrich) into permeabilized cells. Cells undergoing apoptosis were identified using an Annexin V-FITC kit (Abcam), following the manufacturer's instructions. The cells were analyzed using a Coulter Epics XL flow cytometer (Beckman Coulter, Miami, FL).
Figure 7 Induction of apoptosis of PC3 cells following treatment with CTA095. PC3 cells were seeded at 10^6 cells/ml (2 ml) in a 6-well plate overnight and then treated with CTA095 at the indicated concentrations for 24 h. Cell cycle arrest was analyzed using PI staining (A). Apoptosis was analyzed using Annexin-V FITC apoptosis detection kit (B). Caspase 9 activation was measured using western blot (D). For caspase 3/7 activity, PC3 cells were seeded at 5000 cells/well in 96 well plate overnight and treated with CTA095 at 0–10 μM for 24 h. Caspase-3/7 activities were measured using the Apo-ONE Homogeneous Caspase-3/7 Assay kit (Promega, Madison, WI) according to the manufacturer's instruction. Columns, mean; bars, standard deviation, n = 3. […] TEXT PRINTED IN THE PICTURE: (A) CTA095: 4.3% (0 μM); 6.9% (5 μM); 44.0% (10 μM) DOUBTS OF THE COPYIST ABOUT THIS PICTURE: Panel A prints no substance label. […]
(In general: Flow cytometry measures light scatter and fluorescence of single cells or particles in a stream.)

In another test the test system is 293 cells (Etk negative). As to the kind of experiment: Annexin V-FITC apoptosis in 293 cells. The format is cell-based. To be noted: 24 h. On the procedure:
Supplementary file pone.0070910.s005.tif: Figure S5 Induction of apoptosis of 293 cells following treatment with CTA095. 293 cells were seeded at 10^6 cells/ml (2 ml) in a 6-well plate overnight and then treated with CTA095 at the indicated concentrations for 24 h. Apoptosis was analyzed using Annexin-V FITC apoptosis detection kit. Columns, mean; bars, standard deviation, n = 3. (TIF) Click here for additional data file.

Test [3] deals with PC3 cells. The test is described as follows: PC3 cell wound healing assay. The format is cell-based, human. To be noted: 5 μM, after 48 h. As for the experimental part:
PC3 cells were grown in 6-well plate to 60% confluency. Then wounds were made using a tip and treated with CTA095 (0 and 5 μM). Cell migration (wound healing) was visualized under microscope at the indicated times.
Figure 8 Inhibition of tube formation and cell migration by CTA095. Inhibition of vascular tube formation of HUVEC endothelial cells (A) and inhibition of migration (wound healing) of PC3 human prostate cancer cells (B) by CTA095. (A) HUVEC cells were seed on mitrogel and treated with CTA095 (0 and 5 μM) for 6 h. Vascular tube formation was visualized using microscope. (B) PC3 cells were grown in 6-well plate to 60% confluency. Then wounds were made and treated with CTA095 (0 and 5 μM). Cell migration (wound healing) was visualized under microscope at the indicated times.

The subject of a further test is PC3-AZD20 cells. The test is described as follows: MTT cell viability in Src inhibitor resistant cells. The format is cell-based, human. To be noted: 72 h. On the procedure: PC3 and PC3-AZD20 (PC3 cell resistant to 20 μM AZD0530, which is from AstraZeneca through MTA with Dr. Chris Evans) cells were seeded at 2000 cells/well in 96 well plates overnight. The cells were treated with AZD0530 or CTA095 at the indicated concentrations. Cell viability was measured using an MTT assay after 72 h.
Figure 11 CTA095 overcomes Src inhibitor resistance in prostate cancer cells. PC3 and PC3-AZD20 (PC3 cell resistant to 20 μM AZD0530) cells were seeded at 2000 cells/well in 96 well plates overnight. The cells were treated with AZD0530 or CTA095 at the indicated concentrations. Cell viability was measured using MTT assay after 72 h. Symbols, mean; bars, standard deviation, n = 3.

SMILES strings stand for the structures.

Consider `O=c1[nH]c2cc3nc(-c4ccc5oc6ccccc6c5c4)n(CCCN4CCCCC4)c3cc2nc1-c1ccccc1` [CTA095, 2-(dibenzo[b,d]furan-2-yl)-7-phenyl-1-(3-(piperidin-1-yl)propyl)-1H-imidazo[4,5-g]quinoxalin-6(5H)-one], for which, in test [1], the STAT3 phosphorylation result is listed as “also inhibited”. Besides, the IC50 (as a rule, the point on the concentration scale where inhibition reaches its midpoint) stood at 4.2 µM in the test on CWR22Rv1 cells, 3.8 µM in the test on LNCAP cells and 7.9 µM in the test with RWPE1 cells. Besides, the “apoptosis (Annexin-V reactivity)” value in the test on PC3 cells [2] is on record as “dose-dependent increase of apoptosis”. Besides, the induction of apoptosis result with 293 cells (Etk negative) is on record as “resistant to induce apoptosis”. The “wound healing of PC3 cells” value in the test with PC3 cells [3] is “greatly inhibited”. Also, the “IC50 in PC3-AZD20 cells” value with PC3-AZD20 cells is on record as “almost identical to that of the parental PC3 cells”. For the same compound, the “cell viability / sensitivity of PC3-AZD20 cells” value in the test on PC3-AZD20 cells was “highly sensitive”.

(Values after publication PMC3744530, “CTA095, a Novel Etk and Src Dual Inhibitor, Induces Apoptosis in Prostate Cancer Cells and Overcomes Resistance to Src Inhibitors” (PLoS ONE, 2013).)
